In patent publication US20170290774A1, “NEUROKININ-1 RECEPTOR ANTAGONIST COMPOSITION FOR TREATMENT OF DISEASES AND CONDITIONS OF THE RESPIRATORY TRACT” (PLUS VITECH, S.L., priority 2014, published 2017):

Test: Tissue concentration of aprepitant by HPLC after oral or inhaled administration to rabbits
Format: in vivo, New Zealand albino rabbits
Conditions: for concentration at 7 days: New Zealand White, rabbit, lung, seven days
Experimental: Herein, New Zealand albino rabbits (New Zealand White Rabbits) with an initial average weight of approximately 3 kg were used. The rabbits were fed ad libitum and were monitored daily to check that signs of toxicity had not appeared. […] This mixture was administered as an aerosol to the airways of a group of 3 of said rabbits (Group 5) in a dose of 0.05 mg/kg body weight per day, to another group of three rabbits (Group 6) in a dose of 0.1 mg/kg body weight per day, to another group of three rabbits (group 7) in a dose of 0.2 mg/kg body weight per day and to another group of three rabbits (Group 8) in a dose of 0.4 mg/kg body weight per day. […] After seven days of treatment all animals were euthanized and necropsied. […] Samples were taken at the peripheral level of the lung parenchyma, just below the pleural surface. Tissue samples were also taken from the nasal cavity, pharynx, larynx and bronchi. […] The average is the arithmetic average calculated for each row or column of each table. The SD is the standard deviation, calculated for each row or column of each table.

Structure (SMILES): C[C@@H](OC1OCCN(Cc2nc(=O)[nH][nH]2)C1c1ccc(F)cc1)c1cc(C(F)(F)F)cc(C(F)(F)F)c1 (stereo in doubt) [Aprepitant, 5-([(2R,3S)-2-((R)-1-[3,5-bis(trifluoromethyl)phenyl]ethoxy)-3-(4-fluorophenyl)morpholino]methyl)-1H-1,2,4-triazol-3(2H)-one]
- concentration at 7 days (left superior lobe, po, 10 mg/kg/day, Lung concentration of aprepitant LSPI (left superior lobe), Group 1, oral 10 mg/kg per day, individual cases): 500 ng/g
- concentration at 7 days (left superior lobe, po, 10 mg/kg/day, Lung concentration of aprepitant LSPI, Average ± SD of cases, Group 1, oral 10 mg/kg per day): 600 ng/g
- concentration at 7 days (left superior lobe, po, 40 mg/kg/day, Lung concentration of aprepitant LSPI (left superior lobe), Group 2, oral 40 mg/kg per day, individual cases): 5300 ng/g
- concentration at 7 days (left superior lobe, po, 40 mg/kg/day, Lung concentration of aprepitant LSPI, Average ± SD of cases, Group 2, oral 40 mg/kg per day): 4300 ng/g
- concentration at 7 days (left superior lobe, po, 80 mg/kg/day, Lung concentration of aprepitant LSPI (left superior lobe), Group 3, oral 80 mg/kg per day, individual cases): 3900 ng/g
- concentration at 7 days (left superior lobe, po, 80 mg/kg/day, Lung concentration of aprepitant LSPI, Average ± SD of cases, Group 3, oral 80 mg/kg per day): 4700 ng/g
- concentration at 7 days (right inferior lobe, inhaled, 0.4 mg/kg/day, Lung concentration of aprepitant LIPD (right inferior lobe), Group 8, inhalation (aerosol, olive oil) 0.4 mg/kg per day, individual cases): 9900 ng/g
- concentration at 7 days (right inferior lobe, inhaled, 0.4 mg/kg/day, Lung concentration of aprepitant LIPD, Average ± SD of cases, Group 8, inhalation (aerosol, olive oil) 0.4 mg/kg per day): 10100 ng/g
- concentration at 7 days (right inferior lobe, po, 10 mg/kg/day, Lung concentration of aprepitant LIPD (right inferior lobe), Group 1, oral 10 mg/kg per day, individual cases): 600 ng/g
- concentration at 7 days (right inferior lobe, po, 10 mg/kg/day, Lung concentration of aprepitant LIPD, Average ± SD of cases, Group 1, oral 10 mg/kg per day): 800 ng/g
- concentration at 7 days (right inferior lobe, po, 40 mg/kg/day, Lung concentration of aprepitant LIPD (right inferior lobe), Group 2, oral 40 mg/kg per day, individual cases): 3300 ng/g
- concentration at 7 days (right inferior lobe, po, 40 mg/kg/day, Lung concentration of aprepitant LIPD, Average ± SD of cases, Group 2, oral 40 mg/kg per day): 3500 ng/g
- concentration at 7 days (right inferior lobe, po, 80 mg/kg/day, Lung concentration of aprepitant LIPD (right inferior lobe), Group 3, oral 80 mg/kg per day, individual cases): 5100 ng/g
- concentration at 7 days (right inferior lobe, po, 80 mg/kg/day, Lung concentration of aprepitant LIPD, Average ± SD of cases, Group 3, oral 80 mg/kg per day): 5500 ng/g
- concentration at 7 days (right middle lobe, inhaled, 0.4 mg/kg/day, Lung concentration of aprepitant LMPD (right middle lobe), Group 8, inhalation (aerosol, olive oil) 0.4 mg/kg per day, individual cases): 10000 ng/g
- concentration at 7 days (right middle lobe, inhaled, 0.4 mg/kg/day, Lung concentration of aprepitant LMPD, Average ± SD of cases, Group 8, inhalation (aerosol, olive oil) 0.4 mg/kg per day): 10000 ng/g
- concentration at 7 days (right middle lobe, po, 10 mg/kg/day, Lung concentration of aprepitant LMPD (right middle lobe), Group 1, oral 10 mg/kg per day, individual cases): 1100 ng/g
- concentration at 7 days (right middle lobe, po, 10 mg/kg/day, Lung concentration of aprepitant LMPD, Average ± SD of cases, Group 1, oral 10 mg/kg per day): 1300 ng/g
- concentration at 7 days (right middle lobe, po, 40 mg/kg/day, Lung concentration of aprepitant LMPD (right middle lobe), Group 2, oral 40 mg/kg per day, individual cases): 4200 ng/g
- concentration at 7 days (right middle lobe, po, 40 mg/kg/day, Lung concentration of aprepitant LMPD, Average ± SD of cases, Group 2, oral 40 mg/kg per day): 4000 ng/g
- concentration at 7 days (right middle lobe, po, 80 mg/kg/day, Lung concentration of aprepitant LMPD (right middle lobe), Group 3, oral 80 mg/kg per day, individual cases): 4800 ng/g
- concentration at 7 days (right middle lobe, po, 80 mg/kg/day, Lung concentration of aprepitant LMPD, Average ± SD of cases, Group 3, oral 80 mg/kg per day): 5200 ng/g
- concentration at 7 days (right middle lobe, po, 100 mg/kg/day, Lung concentration of aprepitant LMPD (right middle lobe), Group 4, oral 100 mg/kg per day, individual cases): 5800 ng/g
- concentration at 7 days (right superior lobe, inhaled, 0.4 mg/kg/day, Lung concentration of aprepitant LSPD (right superior lobe), Group 8, inhalation (aerosol, olive oil) 0.4 mg/kg per day, individual cases): 10100 ng/g
- concentration at 7 days (right superior lobe, inhaled, 0.4 mg/kg/day, Lung concentration of aprepitant LSPD, Average ± SD of cases, Group 8, inhalation (aerosol, olive oil) 0.4 mg/kg per day): 9900 ng/g
- concentration at 7 days (right superior lobe, po, 10 mg/kg/day, Lung concentration of aprepitant LSPD, Average ± SD of cases, Group 1, oral 10 mg/kg per day): 900 ng/g
- concentration at 7 days (right superior lobe, po, 40 mg/kg/day, Lung concentration of aprepitant LSPD (right superior lobe), Group 2, oral 40 mg/kg per day, individual cases): 3200 ng/g
- concentration at 7 days (right superior lobe, po, 40 mg/kg/day, Lung concentration of aprepitant LSPD, Average ± SD of cases, Group 2, oral 40 mg/kg per day): 3500 ng/g
- concentration at 7 days (right superior lobe, po, 80 mg/kg/day, Lung concentration of aprepitant LSPD (right superior lobe), Group 3, oral 80 mg/kg per day, individual cases): 4900 ng/g
- concentration at 7 days (right superior lobe, po, 80 mg/kg/day, Lung concentration of aprepitant LSPD, Average ± SD of cases, Group 3, oral 80 mg/kg per day): 4100 ng/g
- concentration at 7 days (right superior lobe, po, 100 mg/kg/day, Lung concentration of aprepitant LSPD (right superior lobe), Group 4, oral 100 mg/kg per day, individual cases): 5100 ng/g
- relationship between dose and concentration in the lungs (inhalation, 0.05 to 0.4 mg/kg per day): proportional to the dose administered by inhalation
